The source of these data is PMC8456950, “Structure‐Guided Design of G‐Protein‐Coupled Receptor Polypharmacology” (Angewandte Chemie (International Ed. in English), 2021).

For assay [1], the target named is T1, Human D2R (Homo sapiens, UniProt P14416).
T1 construct: expressed in transfected cells; host or cells: CHO-D2R #S20 cell line (membranes)
Kind of assay: D2R competition binding ([3H]-spiperone displacement). The following applies: radioligand displacement, mean±SEM of three experiments in duplicate; read-out: D2R binding affinity Ki. The protocol: Human D2R competition binding experiments w ere carried out in polypropylene 96-well plates. Each well contained 10 µg of membranes from a CHO-D2R #S20 cell line (protein concentration of 3241 µg/ml), 0.4 nM [3H]-spiperone (80. 2 Ci/mmol, 1 mCi/ml, Perkin […]
The reaction mixture (250 µl/well) was incubated at 25°C for 120 min , after which 200 µL was transferred to a GF/C 96 -well plate (Millipore, Madrid, Spain) pretreated with 0. 5% of PEI and treated with binding buffer (50 mM Tris-HCl, 1 mM EDTA, 5 mM MgCl2, 5 mM KCl, 120 mM NaCl, pH=7.4). The […]
samples were filtered and washed four times with 250 µl wash buffer (50 mM Tris-HCl, 0.9% NaCl, pH=7.4) before measuring in a microplate beta scintillation counter (Microbeta Trilux, PerkinElmer, Madrid, Spain). Three independent exp eriments were carried out to calculate Ki values (n=3). […]
A general note: Displacement assays read how much labelled ligand stays bound in the presence of the test substance.

Assay [2] deals with T1, Human D2R. The assay can be described thus: D2R functional cAMP (HTRF) assay in CHO-D2 #S20 cells. The format is cell-based. The following applies: for EC50: cAMP HTRF, CHO-D2 cells, forskolin 10 µM, mean±SEM n=3; for Emax: relative to the maximal effect of dopamine. The protocol:
KB=I C50/(1+([NECA]/EC50 NECA)).
Functional assays for the human D2R were carried out in a CHO-D2 #S20 cell line. 5,000 cells were seed ed in 30 µl of Opti-ME M (Invitrogen 11058) and 500µM IBMX (Sigma 17018) on a 96-well isoplate (PerkinElmer 6005030). The studied compounds wer e then added and incubated for 10 min at 37 °C with gentle stirring (150 rpm). Then, 10 µM […]
forskolin (Sigma 17018) was added and incubated for 5 min at 37 °C with gentle stirring (150 rpm). Reagents (#CISBIO 62AM4PEC) were added and, after incubation for 60 min at rt with gentle stirring (90 rpm) and protected from light, homogeneous time resolved fluorescence (HTRF, λEx: 320 nm; λEm: 620-665 nm) from each well was measured using a Tecan Infinite M1000 Pro. Data were normalized to the maximum effect of dopamine. EC50 and Ema x values were obtained after fitting the d ata to a four -parameter logistic equatio n using Prism V2. 1 (Graph Pad Inc, Chicago, USA) . […]
Background: Time-resolved FRET reads energy transfer from a long-lived donor to a nearby acceptor.

The target in assay [3] is T2, Human A2AAR (Homo sapiens, UniProt P29274). Kind of assay: A2AAR competition binding ([3H]-ZM241385 displacement). Further details: expressed in transfected cells; host or cells: HeLa-A2AAR cell line (membranes). Particulars: for Ki: radioligand displacement, mean±SEM of three experiments in duplicate, read-out: A2AAR binding affinity Ki. The protocol: Binding assays. Human A2AAR competition binding experiments were carried out in multiscreen GF/C 96-well plates (Millipore, Madrid, Spain) pretreated with binding buffer (50 mM Tris-HCl, 1 mM EDTA, 10 mM MgCl2, 2 U/ml adenosine deaminase, pH=7.4).
Each well contained 5 µg of membranes from a He l a-A2AAR cell line (protein concentration […]
compound studied. Non-specific binding was determined in the presence of 50 µM NE C A (Sigma E2387). The reaction mixture (200 µl/well) was incubated at 25 °C for 30 min, after which it was filtered and washed four times with 250 µl wash buffer (50 mM Tris -HCl, 1 mM EDTA, 10 mM MgCl 2, pH=7. 4) before measuring in a microplate beta scintillation counter (Microbeta Trilux, PerkinElmer, Madrid, Spain). Three independent experiments were carried out to calculate K i values (n=3). […]

For assay [4], the target named is T2, Human A2AAR. The assay can be described thus: A2AAR functional assay, inhibition of NECA-elicited cAMP production in CHO-A2A cells. Further details: expressed in transfected cells. The following applies: mean±SEM n=3. It counts as cell-based. The protocol:
Functional assays. For the human A2AAR, functional experiments measuring cAMP production were carried out in CHO-A2A cell line. The day before the assay, the cells were seeded on a 96-well culture plate (Falcon 353072). The cells were washed with wash buffer (Dulbecco’s modified eagle’s medium nutrient mixture F-12 ham (Sigma D8062), 25 mM Hepes; pH=7.4). Wash buffer was then replaced by incubation buffer (Dulbecco’s modified eagle’s medium nutrient mixture F-12 ham (Sigma D8062), 25 mM Hepes, 20 µM Rolipram, pH=7.4). The studied compounds wer e added and incubated at 37 °C for 15 min. After incubation, NECA (Sigma E2387) was added in several concentrations and incubated at 37 °C for 15 min. After incubation, the amount of cAMP was determined using the cAMP Biotrak Enzymeimmunoassay (EIA) System Kit (GE Healthcare RPN225). Data were adjusted to non-linear fitting by using Prism V2.1 (GraphPad Inc, Chicago USA). K B values were calculated from the IC50 values obtained for each compound by using the formula:
KB=I C50/(1+([NECA]/EC50 NECA)). […]
On the technique in general: Changes in cAMP serve as a functional read-out for many G protein-coupled receptors.

The test system of assay [5] is unilaterally 6-OHDA lesioned rats. Kind of assay: Rotation test in unilaterally 6-OHDA lesioned rats (model of Parkinsonism). The format is in vivo. Particulars: apomorphine 1 mg/kg IP, 6-OHDA lesioned rats. On the procedure: Evaluation of compound 30 in rodent model of Parkinsonism. Male Sprague Dawley rats (150-200 g) were housed in air-conditioned rooms (12h dark/light cycle) at 20°C and a humidity of 53%. Experiments were performed in agreement with the European Communities Council Directive of 24 November 1986 (86/609/EEC) on the ethical use of animals and were approved by the local ethical committee (Stockholm North Ethical Committee, N105/16). Rats were anesthetized with ketamine (100 mg/kg, IP; Intervet)/xylazine (5 mg/kg, IP; Bayer, Kiel, Germany), pretreated with desipramine (25 mg/kg, IP; Sigma, St Louis, MO, USA)/pargyline (5 mg/kg, IP; Sigma), placed in a stereotaxi c instrument and injected with 6-OHDA (2.5 µl of a 5mg/ml solution; Sigma) into the median forebrain bundle (MFB) of the right hemisphere (AP -2.8 mm, ML -2.0 mm and V -9.0 mm). Two weeks after the unilateral 6-OHDA lesion, rats were injected with apomorphine (1 mg/kg, IP; Sigma) and their contralateral rotations were measured to determine the degree of nigrostriatal denervation. Four weeks after surgery, rats that were divided into two group according to the number of apomorphine-induced rotations. The rats were treated either with DMSO(17%)/saline (n=6) or compound 30 (n=7, 24 mg/kg, IP) dissolved in DMSO(17%)/saline. The number of rotations was calculated automatically with Noldus EthoVision XT11. 5 Software for 30 min following the drug administration. The two […]
groups were then compared by using a Mann-Whitney test. A second set of independent experiments using a new set of rats were carried out using the same protocol to assess the involvement of the D2R in the observed effect. In this case, rats were divided into four groups according to the number of apomorphine-induced rotations. The rats were treated with either DMSO(17%)/saline (n=6), raclopride (n=7, 2mg/kg, IP) dissolved in DMSO(17%)/saline, compound 30 (n=7, 24 mg/kg, IP) dissolved in DMSO(17%)/saline or the combination of raclopride (30 min pretreatment) and compound 30 (n=7). The rotation test was then performed for 30 min. […]

T2 sequence (P29274 whole entry): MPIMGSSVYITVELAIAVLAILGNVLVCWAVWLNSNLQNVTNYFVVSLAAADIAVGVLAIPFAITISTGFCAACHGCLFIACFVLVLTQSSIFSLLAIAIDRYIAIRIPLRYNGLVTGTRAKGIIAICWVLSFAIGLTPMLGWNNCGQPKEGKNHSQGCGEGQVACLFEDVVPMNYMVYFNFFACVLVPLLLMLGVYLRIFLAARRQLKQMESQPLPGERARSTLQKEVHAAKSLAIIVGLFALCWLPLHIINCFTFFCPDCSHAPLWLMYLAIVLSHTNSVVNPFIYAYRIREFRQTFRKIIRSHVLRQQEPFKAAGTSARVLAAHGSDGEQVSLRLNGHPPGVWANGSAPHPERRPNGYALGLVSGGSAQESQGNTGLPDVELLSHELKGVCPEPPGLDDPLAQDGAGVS
T1 sequence (P14416 whole entry): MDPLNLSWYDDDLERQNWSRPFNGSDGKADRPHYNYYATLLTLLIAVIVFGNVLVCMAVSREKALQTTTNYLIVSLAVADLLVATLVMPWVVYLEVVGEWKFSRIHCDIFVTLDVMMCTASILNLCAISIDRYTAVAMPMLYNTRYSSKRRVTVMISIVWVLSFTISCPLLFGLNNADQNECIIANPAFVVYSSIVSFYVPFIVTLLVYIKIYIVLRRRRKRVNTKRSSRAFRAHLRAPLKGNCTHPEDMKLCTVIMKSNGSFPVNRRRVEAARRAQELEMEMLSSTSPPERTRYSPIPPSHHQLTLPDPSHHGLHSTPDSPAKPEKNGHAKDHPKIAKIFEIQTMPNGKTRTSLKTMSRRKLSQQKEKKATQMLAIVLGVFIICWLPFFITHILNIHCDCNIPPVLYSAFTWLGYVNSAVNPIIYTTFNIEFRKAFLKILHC

In the case of `CN(CCCCC(=O)Nc1nc2c(Br)cccc2s1)C1Cc2ccccc2C1` [Compound 20], the inhibition constant (Ki) – broadly, the dissociation constant of the complex between target and ligand, obtained from inhibition or displacement – at Human D2R [1] stood at 340 ± 30 nM. For the same molecule, on Human D2R [2], the midpoint of the response, the EC50, lay at 1500 ± 20 nM and the maximal response (Emax) (commonly the maximal effect, on the per cent scale that the assay sets) is 62 ± 9%. Moreover, the Ki at Human A2AAR [3] turned out to be 190 ± 30 nM. At Human A2AAR [3] (relative to 2), the “improvement of A2AAR affinity over compound 2” value is reported as greater than 6 fold. The same molecule displayed a Kb at Human A2AAR [4] of 320 ± 30 nM.

On to `CCCN(CCCCC(=O)Nc1nc2c(OC)ccc(C)c2s1)C1Cc2ccccc2C1` [Compound 29], for which the Ki at Human D2R [1] was 670 ± 70 nM. Besides, on Human D2R [2], the concentration for a half-maximal effect (EC50) (commonly the concentration needed to bring the measured effect to its halfway point) is 980 ± 10 nM and the maximum response (Emax) stood at 105 ± 5%. In addition, the Ki on Human A2AAR [3] is 460 ± 40 nM. Moreover, at Human A2AAR [4], the Kb came out at 1900 ± 700 nM.

Regarding `CN1CCc2cccc3c2[C@H]1Cc1ccc(O)c(O)c1-3` [apomorphine, reference compound], the “rotational behaviour induced by control D2R agonist” value in assay [5] is reported as “contralateral rotational behaviour”.
